Entries after “also recorded” stand apart in the source; their conditions may differ.
Key:
human CB1 receptors = target: T1, human CB1 receptors (Homo sapiens, UniProt P21554); experiment: [3H]CP-55,940 radioligand competition binding assay, CB1; settings: CHO cell membranes, [3H]CP-55,940 displacement
T1 construct: expressed in transfected cells
Method: (§1) Binding assay. The bioassay is carried out using the Perkin Elmer 96-well Top Counter. This bioassay is also known as a competition binding assay and the biological evaluation is to determine the CB receptor binding affinity (Ki) of the screened ligands by displacing [^3H]-CP-55940 (or other radioligands). The brief procedure is given below.
(§2) Perkin Elmer 96-well TopCounter is used at PMLSC and in our laboratory to determine the CB receptor binding affinity (Ki) of the in-silico screened ligands by displacing [^3H]-CP-55,940 (or other radioligands). In competition binding experiments, the tested compound dilutions are carried out in triplicate in TME buffer (25 mM Tris, 5 mM MgCl2, 1 mM EDTA) containing 0.1% (w/v) fatty acid free bovine serum albumin (BSA), pH 7.4. Various concentrations of the tested compound are added in the same volume to 0.5 nM [^3H]CP-55,940. TME buffer and cell membrane preparations expressing CB receptors (2.5 μg per well) are added to a final volume of 200 μL. For the saturation binding experiments, varying concentrations of [^3H]CP-55,940 (0.05-1.5 nM) with or without 2 μM of unlabeled ligands (CP-55,940 or WIN-55,212-2) are incubated with the receptor membrane preparations to determine Kd and nonspecific binding. After the binding suspensions are incubated at 30° C. for 1 hr, the reaction is terminated by rapid filtration through microfiltration plates coated with 0.5% polyethylenimine (Unifilter GF/B filterplate, PerkinElmer) followed by 5 washes with ice cold TME buffer containing 0.5% BSA on a Packard Filtermate Harvester (PerkinElmer). The plates are then dried overnight and 30 μl MicroScint 0 scintillation cocktail are added to each well of the dried filter plates. Then the bound radioactivity is counted using a Perkin Elmer 96-well TopCounter. The Ki is calculated by using nonlinear regression analysis (Prism 5; GraphPad Software Inc., San Diego, Calif.), with the Kd values for [^3H]CP-55,940 determined from saturation binding experiments. This assay is used for determining binding affinity parameters (Ki) of ligand-receptor interactions for the CB receptor.
(§3) The affinities of the synthesized ligands were determined in radioligand binding studies at human CB1 and CB2 receptors using [3H](—)-cis-3-[2-hydroxy-4-(1,1 dimethylheptyl)phenyl]-trans-4-(3-hydroxypropyl) cyclohexanol (CP55,940) as a CB receptor radioligand. As a source for human CB1 and CB2 receptors, membrane preparations of Chinese hamster ovary (CHO) cells stably expressing the respective receptor subtype were utilized (50 μg of protein/vial). CB2 selective ligand SR144528 (CB2 inverse agonist) and CB1 ligand SR141716 (CB1 inverse agonist) were used as positive controls, respectively, along with the tested compounds in bioassays experiments. Only compounds with high CB2 receptor binding potency was chosen to carry out the CB1 binding assay. CB ligand competition binding assay was carried out as described previously in Gertsch, J., et al., Beta-caryophyllene is a dietary cannabinoid. Proc Natl Acad Sci USA 2008, 105 (26), 9099-104. Briefly, non-radioactive (or cold) ligands (synthesized derivatives and reference ligands) were diluted in a binding buffer (50 mM Tris-HCl (pH 7.4), 5 mM MgC12, 2.5 mM EGTA, and 0.1% (w/v) fatty acid free BSA), supplemented with 10% dimethyl sulfoxide and 0.4% methyl cellulose. Each assay plate well contained a total of 200 μL of reaction mixture composed of 5 μg of CB1 (or 2.5 μg CB2) membrane protein, labeled [3H]-CP-55,940 ligand at a final concentration of 2.5 nM, and the unlabeled ligand at its varying dilutions as stated above. Plates were incubated at 30° C. for 1 hour with gentle shaking.
(§4) The reaction was terminated by rapid filtration through Unifilter GF/B filter plates using a Unifilter Cell Harvester (PerkinElmer). After the plate was allowed to dry overnight, 30 μL MicroScint-0 cocktail (PerkinElmer) was added to each well, and the radioactivity was counted using a PerkinElmer TopCounter. […]

[1] = system: RANKL-induced osteoclast differentiation of C57BL/6 mouse bone marrow cells; experiment: In-vitro osteoclast formation assay (RANKL-induced, TRAP staining); type: cell-based; settings: for effect on RANKL-induced osteoclast formation (in words): RANKL 100 ng/mL, M-CSF 30 ng/mL, concentration series up to 10 μM, FIG. 5; for inhibition at 10 µM: Mus musculus, Osteoclast, read-out: inhibition rates of osteoclast formation
Method: FIGS. 5A and 5B relate to […]. Anti-osteoclastogenesis activity of the synthesized CB2 ligands. […] FIG. 5B: BM cells were seeded at a density of 2×10^5 cells/well in 96-well plates and treated with or without RANKL (100 ng/mL) and M-CSF (30 ng/mL). CB2 compounds were added at the indicated concentrations for 10 days and stained for TRAP expression. Data is the mean of three experiments carried out in triplicates. (B) Microscopic photographs of cells for compound 15 (magnification 100×).
Bone marrow (BM) cells were obtained from the tibia and femur of 4- to 6-week old C57BL/6 mice. To examine the effects of our selective CB2 ligands, BM cells were seeded at 2×10^5 cells/well in 96-well plates in 100 μIL/well Alpha-MEM media (Gibco Laboratories, Grand Island, N.Y.) containing 15% fetal bovine serum (FBS) (Gibco Laboratories, Grand Island, N.Y.), 30 ng/mL M-CSF (R&D Systems, USA), and 100 ng/mL RANKL (ProsPec, East Brunswick, N.J.). Plates were cultured for 7-10 days. Half media was changed every third day with or without CB2 ligands. At the end of the experiment, cells were fixed and stained with tartrate-resistant acid […] (TRAP) (Sigma-Aldrich, USA), according to manufacturer's protocol. TRAP-positive cells with ≥3 nuclei were counted as osteoclasts ((a) Feng, R., et al., SDX-308, a nonsteroidal anti-inflammatory agent, inhibits NF-kappaB activity, resulting in strong inhibition of osteoclast formation/activity and multiple myeloma cell growth. Blood 2007, 109 (5), 2130-8; (b) Yu, M., et al., Curcumol suppresses RANKL-induced osteoclast formation by attenuating the JNK signaling pathway. Biochem Biophys Res Commun 2014, 447 (2), 364-70; (c) Feng, R., et al., KD5170, a novel mercaptoketone-based histone deacetylase inhibitor, exerts antimyeloma effects by DNA damage and mitochondrial signaling. Mol Cancer Ther 2008, 7 (6), 1494-505.).

human CB2 receptors = target: T2, human CB2 receptors (Homo sapiens, UniProt P34972); experiment: [3H]CP-55,940 radioligand competition binding assay, CB2; settings: for Ki: CHO cell membranes, [3H]CP-55,940 displacement
T2 construct: expressed in transfected cells
T2 sequence (P34972 whole entry): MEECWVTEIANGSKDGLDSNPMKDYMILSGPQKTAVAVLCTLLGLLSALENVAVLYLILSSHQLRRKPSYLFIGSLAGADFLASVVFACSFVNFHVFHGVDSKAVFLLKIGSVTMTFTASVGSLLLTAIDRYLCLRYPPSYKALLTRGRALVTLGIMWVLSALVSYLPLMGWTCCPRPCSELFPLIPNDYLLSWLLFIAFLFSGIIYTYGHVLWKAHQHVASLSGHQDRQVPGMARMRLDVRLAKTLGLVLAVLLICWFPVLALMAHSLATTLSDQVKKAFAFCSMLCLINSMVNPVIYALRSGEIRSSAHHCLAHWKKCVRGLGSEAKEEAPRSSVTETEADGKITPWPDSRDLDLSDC
Method: as §1, §2, §3, §4

T1 sequence (P21554 whole entry): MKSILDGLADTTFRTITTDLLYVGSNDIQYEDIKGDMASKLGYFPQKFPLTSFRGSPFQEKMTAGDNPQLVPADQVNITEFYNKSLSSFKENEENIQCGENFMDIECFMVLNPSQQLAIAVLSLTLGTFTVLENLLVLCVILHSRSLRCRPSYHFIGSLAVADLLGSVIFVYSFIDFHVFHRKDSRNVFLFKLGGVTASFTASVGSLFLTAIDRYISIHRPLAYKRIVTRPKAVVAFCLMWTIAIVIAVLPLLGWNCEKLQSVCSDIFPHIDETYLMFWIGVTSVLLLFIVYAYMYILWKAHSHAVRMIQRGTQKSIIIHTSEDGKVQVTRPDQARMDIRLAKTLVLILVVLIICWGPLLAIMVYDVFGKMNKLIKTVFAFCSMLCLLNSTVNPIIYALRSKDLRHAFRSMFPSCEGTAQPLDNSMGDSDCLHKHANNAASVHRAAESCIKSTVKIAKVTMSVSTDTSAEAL

| Ki (human CB1 receptors) | SI: selectivity index for CB2, calculated as Ki(CB1)/Ki(CB2) ratio (human CB2 receptors) | Ki (human CB2 receptors) | SMILES | effect on RANKL-induced osteoclast formation (in words) [1] | inhibition at 10 µM [1] |
| --- | --- | --- | --- | --- | --- |
| 3.28 µM | 31 | 0.107 µM | CCN(CC)c1ccc(CN(Cc2cc(OC)c(OC)c(OC)c2)C(=O)c2cccs2)cc1 [Compound 11, N-(4-(diethylamino)benzyl)-N-(3,4,5-trimethoxybenzyl)thiophene-2-carboxamide] | induction of osteoclast formation at higher doses; also recorded: low effect in inducing the osteoclast formation at higher doses |  |
| 2.29 µM | 9 | 0.242 µM | CCN(CC)c1ccc(CN(Cc2cc(OC)c(OC)c(OC)c2)S(=O)(=O)c2ccc(C=O)cc2)cc1 [Compound 18, N-(4-(diethylamino)benzyl)-4-formyl-N-(3,4,5-trimethoxybenzyl)benzenesulfonamide] | concentration-dependent inhibition of osteoclast formation; also recorded: inhibited the RANKL-induced osteoclast differentiation in a dose-dependent manner | > 95% |

| SMILES | Ki (human CB1 receptors) | SI: selectivity index for CB2, calculated as Ki(CB1)/Ki(CB2) ratio (human CB2 receptors) | Ki (human CB2 receptors) | effect on RANKL-induced osteoclast formation (in words) [1] | inhibition at 10 µM [1] |
| --- | --- | --- | --- | --- | --- |
| CCN(CC)c1ccc(CN(Cc2cc(OC)c(OC)c(OC)c2)S(=O)(=O)/C=C/c2ccccc2)cc1 [Compound 15, (E)-N-(4-(diethylamino)benzyl)-2-phenyl-N-(3,4,5-trimethoxybenzyl)ethene-1-sulfonamidebenzenesulfonamide] | > 20 µM | 145 | 0.138 µM | concentration-dependent inhibition of osteoclast formation; also recorded: inhibited the RANKL-induced osteoclast differentiation in a dose-dependent manner | > 95% |

From patent US11059778B2, “Cannabinoid receptor CB2 ligand 4-(aminomethyl)-N, N-dialkylanilines” (UNIVERSITY OF PITTSBURGH—OF THE COMMONWEALTH SYSTEM OF …, priority 2015, dated 2021)
